Measurements: ChEMBL document CHEMBL3352489, “6-Hydroxyquinolinium salts differing in the length of alkyl side-chain: synthesis and antimicrobial activity” (Bioorg Med Chem Lett, 2014)

Experiments:
[1] = tested on: Staphylococcus epidermidis; assay: microbe, parasite or virus in culture; format: functional; settings: H 6966/08, 48 h
Description: Antibacterial activity against Staphylococcus epidermidis H 6966/08 after 48 hrs by microdilution broth method

[2] = tested on: Klebsiella pneumoniae; assay: Bactericidal activity against Klebsiella pneumoniae D 11750/08 after 24 hrs by microdilution broth method; format: functional; settings: D 11750/08, 24 h, read-out: MBC>99.9
[3] = tested on: Klebsiella pneumoniae; assay: microbe, parasite or virus in culture; format: functional; settings: D 11750/08, 24 h
Description: Antibacterial activity against Klebsiella pneumoniae D 11750/08 after 24 hrs by microdilution broth method

[4] = tested on: Pichia kudriavzevii; assay: Fungicidal activity against Candida krusei E28 after 48 hrs by modified standard CSLI M27-A2 method; format: functional; settings: E28, 48 h
[5] = tested on: Pseudomonas aeruginosa; assay: microbe, parasite or virus in culture; format: functional; settings: CCM 1961, 120 h
Description: Antibacterial activity against Pseudomonas aeruginosa CCM 1961 after 120 hrs by microdilution broth method

[6] = tested on: Klebsiella pneumoniae; assay: Bactericidal activity against Klebsiella pneumoniae J 14368/08 after 48 hrs by microdilution broth method; format: functional; settings: J 14368/08, 48 h, read-out: MBC>99.9
[7] = tested on: Enterococcus sp.; assay: microbe, parasite or virus in culture; format: functional; settings: J 14365/08, 48 h
Description: Antibacterial activity against Enterococcus sp. J 14365/08 after 48 hrs by microdilution broth method

[8] = tested on: Pichia kudriavzevii; assay: Antifungal activity against Candida krusei E28 after 48 hrs by modified standard CSLI M27-A2 method; format: functional; settings: E28, 48 h
[9] = tested on: Klebsiella pneumoniae; assay: microbe, parasite or virus in culture; format: functional; settings: J 14368/08, 24 h
Description: Antibacterial activity against Klebsiella pneumoniae J 14368/08 after 24 hrs by microdilution broth method

[10] = tested on: Trichophyton mentagrophytes; assay: Fungicidal activity against Trichophyton mentagrophytes 445 after 120 hrs by modified standard CSLI M27-A2 method; format: functional; settings: Trichophyton mentagrophytes, 445, 120 h
[11] = tested on: Escherichia coli; assay: microbe, parasite or virus in culture; format: functional; settings: CCM 4517, 24 h
Description: Antibacterial activity against Escherichia coli CCM 4517 after 24 hrs by microdilution broth method

[12] = tested on: Lichtheimia corymbifera; assay: microbe, parasite or virus in culture; format: functional; settings: Lichtheimia corymbifera, 272, 48 h
Description: Antifungal activity against Absidia corymbifera 272 after 48 hrs by modified standard CSLI M27-A2 method

[13] = tested on: Nakaseomyces glabratus; assay: Antifungal activity against Candida glabrata 20/I after 48 hrs by modified standard CSLI M27-A2 method; format: functional
[14] = tested on: Lichtheimia corymbifera; assay: microbe, parasite or virus in culture; format: functional; settings: Lichtheimia corymbifera, 272, 24 h
Description: Antifungal activity against Absidia corymbifera 272 after 24 hrs by modified standard CSLI M27-A2 method

[15] = tested on: Pseudomonas aeruginosa; assay: microbe, parasite or virus in culture; format: functional; settings: CCM 1961, 72 h
Description: Antibacterial activity against Pseudomonas aeruginosa CCM 1961 after 72 hrs by microdilution broth method

[16] = tested on: Escherichia coli; assay: Bactericidal activity against Escherichia coli CCM 4517 after 48 hrs by microdilution broth method; format: functional; settings: CCM 4517, 48 h, read-out: MBC>99.9
[17] = tested on: Candida tropicalis; assay: microbe, parasite or virus in culture; format: functional; settings: Candida tropicalis, 156, 24 h
Description: Antifungal activity against Candida tropicalis 156 after 24 hrs by modified standard CSLI M27-A2 method

[18] = tested on: Enterococcus sp.; assay: Bactericidal activity against Enterococcus sp. J 14365/08 after 48 hrs by microdilution broth method; format: functional; settings: J 14365/08, 48 h, read-out: MBC>99.9
[19] = tested on: Trichophyton mentagrophytes; assay: microbe, parasite or virus in culture; format: functional; settings: Trichophyton mentagrophytes, 445, 120 h
Description: Antifungal activity against Trichophyton mentagrophytes 445 after 120 hrs by modified standard CSLI M27-A2 method

[20] = tested on: Trichophyton mentagrophytes; assay: microbe, parasite or virus in culture; format: functional; settings: Trichophyton mentagrophytes, 445, 72 h
Description: Antifungal activity against Trichophyton mentagrophytes 445 after 72 hrs by modified standard CSLI M27-A2 method

[21] = tested on: Staphylococcus aureus; assay: microbe, parasite or virus in culture; format: functional; settings: CCM 4516/08, 24 h
Description: Antibacterial activity against Staphylococcus aureus CCM 4516/08 after 24 hrs by microdilution broth method

[22] = tested on: Candida tropicalis; assay: Fungicidal activity against Candida tropicalis 156 after 48 hrs by modified standard CSLI M27-A2 method; format: functional; settings: Candida tropicalis, 156, 48 h
[23] = tested on: Aspergillus fumigatus; assay: microbe, parasite or virus in culture; format: functional; settings: Aspergillus fumigatus, 231, 24 h
Description: Antifungal activity against Aspergillus fumigatus 231 after 24 hrs by modified standard CSLI M27-A2 method

[24] = tested on: Lichtheimia corymbifera; assay: Fungicidal activity against Absidia corymbifera 272 after 48 hrs by modified standard CSLI M27-A2 method; format: functional; settings: Lichtheimia corymbifera, 272, 48 h
[25] = tested on: Staphylococcus aureus; assay: microbe, parasite or virus in culture; format: functional; settings: H 5996/08, 48 h
Description: Antibacterial activity against Staphylococcus aureus H 5996/08 after 48 hrs by microdilution broth method

[26] = tested on: Nakaseomyces glabratus; assay: Antifungal activity against Candida glabrata 20/I after 24 hrs by modified standard CSLI M27-A2 method; format: functional
[27] = tested on: Staphylococcus epidermidis; assay: microbe, parasite or virus in culture; format: functional; settings: H 6966/08, 24 h
Description: Antibacterial activity against Staphylococcus epidermidis H 6966/08 after 24 hrs by microdilution broth method

[28] = tested on: Trichosporon asahii; assay: microbe, parasite or virus in culture; format: functional; settings: Trichosporon asahii, 1188, 48 h
Description: Antifungal activity against Trichosporon asahii 1188 after 48 hrs by modified standard CSLI M27-A2 method

[29] = tested on: Nakaseomyces glabratus; assay: Fungicidal activity against Candida glabrata 20/I after 48 hrs by modified standard CSLI M27-A2 method; format: functional
[30] = tested on: Trichosporon asahii; assay: microbe, parasite or virus in culture; format: functional; settings: Trichosporon asahii, 1188, 24 h
Description: Antifungal activity against Trichosporon asahii 1188 after 24 hrs by modified standard CSLI M27-A2 method

[31] = tested on: Candida albicans; assay: Fungicidal activity against Candida albicans ATCC 44859 after 48 hrs by modified standard CSLI M27-A2 method; format: functional; settings: ATCC 44859, 48 h
[32] = tested on: Staphylococcus aureus; assay: Bactericidal activity against Staphylococcus aureus H 5996/08 after 48 hrs by microdilution broth method; format: functional; settings: H 5996/08, 48 h, read-out: MBC>99.9
[33] = tested on: Aspergillus fumigatus; assay: microbe, parasite or virus in culture; format: functional; settings: Aspergillus fumigatus, 231, 48 h
Description: Antifungal activity against Aspergillus fumigatus 231 after 48 hrs by modified standard CSLI M27-A2 method

[34] = tested on: Klebsiella pneumoniae; assay: microbe, parasite or virus in culture; format: functional; settings: D 11750/08, 48 h
Description: Antibacterial activity against Klebsiella pneumoniae D 11750/08 after 48 hrs by microdilution broth method

[35] = tested on: Candida tropicalis; assay: microbe, parasite or virus in culture; format: functional; settings: Candida tropicalis, 156, 48 h
Description: Antifungal activity against Candida tropicalis 156 after 48 hrs by modified standard CSLI M27-A2 method

[36] = tested on: Candida albicans; assay: microbe, parasite or virus in culture; format: functional; settings: ATCC 44859, 24 h
Description: Antifungal activity against Candida albicans ATCC 44859 after 24 hrs by modified standard CSLI M27-A2 method

[37] = Cytotoxicity against CHOK1 cells after 24 hrs by MTT assay; format: ADME, cell-based; settings: Cricetulus griseus, CHO-K1, 24 h
[38] = tested on: Candida albicans; assay: microbe, parasite or virus in culture; format: functional; settings: ATCC 44859, 48 h
Description: Antifungal activity against Candida albicans ATCC 44859 after 48 hrs by modified standard CSLI M27-A2 method

[39] = tested on: Staphylococcus aureus; assay: microbe, parasite or virus in culture; format: functional; settings: H 5996/08, 24 h
Description: Antibacterial activity against Staphylococcus aureus H 5996/08 after 24 hrs by microdilution broth method

[40] = tested on: Staphylococcus epidermidis; assay: Bactericidal activity against Staphylococcus epidermidis H 6966/08 after 48 hrs by microdilution broth method; format: functional; settings: H 6966/08, 48 h, read-out: MBC>99.9
[41] = tested on: Staphylococcus aureus; assay: Bactericidal activity against Staphylococcus aureus CCM 4516/08 after 48 hrs by microdilution broth method; format: functional; settings: CCM 4516/08, 48 h, read-out: MBC>99.9
[42] = tested on: Klebsiella pneumoniae; assay: microbe, parasite or virus in culture; format: functional; settings: J 14368/08, 48 h
Description: Antibacterial activity against Klebsiella pneumoniae J 14368/08 after 48 hrs by microdilution broth method

[43] = tested on: Escherichia coli; assay: microbe, parasite or virus in culture; format: functional; settings: CCM 4517, 48 h
Description: Antibacterial activity against Escherichia coli CCM 4517 after 48 hrs by microdilution broth method

[44] = tested on: Trichosporon asahii; assay: Fungicidal activity against Trichosporon asahii 1188 after 48 hrs by modified standard CSLI M27-A2 method; format: functional; settings: Trichosporon asahii, 1188, 48 h
[45] = tested on: Staphylococcus aureus; assay: microbe, parasite or virus in culture; format: functional; settings: CCM 4516/08, 48 h
Description: Antibacterial activity against Staphylococcus aureus CCM 4516/08 after 48 hrs by microdilution broth method

[46] = tested on: Aspergillus fumigatus; assay: Fungicidal activity against Aspergillus fumigatus 231 after 48 hrs by modified standard CSLI M27-A2 method; format: functional; settings: Aspergillus fumigatus, 231, 48 h
[47] = tested on: Enterococcus sp.; assay: microbe, parasite or virus in culture; format: functional; settings: J 14365/08, 24 h
Description: Antibacterial activity against Enterococcus sp. J 14365/08 after 24 hrs by microdilution broth method

[48] = tested on: Pichia kudriavzevii; assay: Antifungal activity against Candida krusei E28 after 24 hrs by modified standard CSLI M27-A2 method; format: functional; settings: E28, 24 h
[49] = tested on: Pseudomonas aeruginosa; assay: Bactericidal activity against Pseudomonas aeruginosa CCM 1961 after 120 hrs by microdilution broth method; format: functional; settings: CCM 1961, 120 h, read-out: MBC>99.9

## CCCCCCCCCCCCCC[n+]1ccccc1
[1]
  MIC95: 0.49 µM
[2]
  MBC: 15.6 µM
[3]
  MIC95: 15.6 µM
[4]
  MFC: 250 µM
[5]
  MIC95: 125 µM
[6]
  MBC: 7.81 µM
[7]
  MIC95: 1.95 µM
[8]
  MIC: 0.98 µM
[9]
  MIC95: 7.81 µM
[10]
  MFC: 31.2 µM
[11]
  MIC95: 7.81 µM
[12]
  MIC: 125 µM
[13]
  MIC: 1.95 µM
[14]
  MIC: 125 µM
[15]
  MIC95: 125 µM
[16]
  MBC: 7.81 µM
[17]
  MIC: 1.95 µM
[18]
  MBC: 15.6 µM
[19]
  MIC: 15.6 µM
[20]
  MIC: 15.6 µM
[21]
  MIC95: 0.98 µM
[22]
  MFC: 250 µM
[23]
  MIC: 15.6 µM
[24]
  MFC: 250 µM
[25]
  MIC95: 3.91 µM
[26]
  MIC: 1.95 µM
[27]
  MIC95: 0.49 µM
[28]
  MIC: 31.2 µM
[29]
  MFC: 250 µM
[30]
  MIC: 31.2 µM
[31]
  MFC: 125 µM
[32]
  MBC: 3.91 µM
[33]
  MIC: 31.2 µM
[34]
  MIC95: 15.6 µM
[35]
  MIC: 1.95 µM
[36]
  MIC: 7.81 µM
[37]
  IC50: 25 µM
[38]
  MIC: 7.81 µM
[39]
  MIC95: 3.91 µM
[40]
  MBC: 0.49 µM
[41]
  MBC: 3.91 µM
[42]
  MIC95: 7.81 µM
[43]
  MIC95: 7.81 µM
[44]
  MFC: 250 µM
[45]
  MIC95: 0.98 µM
[46]
  MFC: 250 µM
[47]
  MIC95: 1.95 µM
[48]
  MIC: 0.98 µM
[49]
  MBC: 125 µM

## CCCCCCCCCCCC[n+]1ccccc1
[1]
  MIC95: 3.91 µM
[2]
  MBC: 7.81 µM
[3]
  MIC95: 3.91 µM
[4]
  MFC: 0.49 µM
[5]
  MIC95: 7.81 µM
[6]
  MBC: 7.81 µM
[7]
  MIC95: 3.91 µM
[8]
  MIC: 0.49 µM
[9]
  MIC95: 7.81 µM
[10]
  MFC: 3.91 µM
[11]
  MIC95: 1.95 µM
[12]
  MIC: 125 µM
[13]
  MIC: 0.49 µM
[14]
  MIC: 62.5 µM
[15]
  MIC95: 7.81 µM
[16]
  MBC: 3.91 µM
[17]
  MIC: 0.49 µM
[18]
  MBC: 3.91 µM
[19]
  MIC: 3.91 µM
[20]
  MIC: 1.95 µM
[21]
  MIC95: 0.49 µM
[22]
  MFC: 3.91 µM
[23]
  MIC: 3.91 µM
[24]
  MFC: 250 µM
[25]
  MIC95: 3.91 µM
[26]
  MIC: 0.49 µM
[27]
  MIC95: 0.98 µM
[28]
  MIC: 15.6 µM
[29]
  MFC: 0.49 µM
[30]
  MIC: 7.81 µM
[31]
  MFC: 1.95 µM
[32]
  MBC: 3.91 µM
[33]
  MIC: 31.2 µM
[34]
  MIC95: 7.81 µM
[35]
  MIC: 1.95 µM
[36]
  MIC: 0.98 µM
[37]
  IC50: 39 µM
[38]
  MIC: 1.95 µM
[39]
  MIC95: 3.91 µM
[40]
  MBC: 3.91 µM
[41]
  MBC: 1.95 µM
[42]
  MIC95: 7.81 µM
[43]
  MIC95: 3.91 µM
[44]
  MFC: 15.6 µM
[45]
  MIC95: 1.95 µM
[46]
  MFC: 31.2 µM
[47]
  MIC95: 1.95 µM
[48]
  MIC: 0.49 µM
[49]
  MBC: 7.81 µM

## CCCCCCCCCCCCCCCC[n+]1ccccc1 [CETYLPYRIDINIUM BROMIDE]
[2]
  MBC: 15.6 µM
[4]
  MFC: 1.95 µM
[6]
  MBC: 7.81 µM
[10]
  MFC: 7.81 µM
[16]
  MBC: 7.81 µM
[18]
  MBC: 7.81 µM
[22]
  MFC: 3.9 µM
[24]
  MFC: 62.5 µM
[29]
  MFC: 3.91 µM
[31]
  MFC: 15.6 µM
[32]
  MBC: 3.91 µM
[40]
  MBC: 3.91 µM
[41]
  MBC: 3.91 µM
[44]
  MFC: 7.81 µM
[46]
  MFC: 15.6 µM
[49]
  MBC: 125 µM
